The test system of one data set is COX-2 mRNA. Kind of data set: COX mRNA levels. Particulars: Control 1.0. It is filed as cell-based. From the text:
PGE2 levels are a direct measure of COX-2 activity. […] Increased COX-2 expression in the presence of aspirin has been reported previously (Davies et al., Alimentary Pharm. & Ther. 11(6):1101-08 (1997))). Both DEA/NO and DEA/NO-aspirin seem to augment the effect of aspirin while IPA/NO and IPA/NO-aspirin nullifies the effect and brings it back to the control level (Table 3).

A further data set deals with porcine liver esterase. The data set can be described thus: Esterase-catalyzed hydrolysis followed by UV spectrophotometry. The data set is classed as in vitro ADME. Particulars: pH 7.4. Here is the method:
FIGS. 4A-C are graphs illustrating spontaneous hydrolysis (FIGS. 4A and 4B) and esterase-catalyzed hydrolysis (FIG. 4C) of 2 in an embodiment of the invention. In FIG. 4A, spectra were collected every 60 s (10-min intervals shown) after dissolving 2 in PBS (pH 7.4) at 37° C., and only loss of the parent compound was observed. In FIG. 4B, the pH was elevated to 12, and scans were collected every 0.5 s (through 2.5 s and 3.5, 5.5, 9.5, and 54.5 shown). In FIG. 4C, porcine liver esterase (20 μL in 3 mL) was added (pH 7.4), and spectra were collected every 10 s. Hydrolysis of 2 (λmax 236 nm) to 1 (λmax 250 nm) was complete within 40 s (0.067 s^−1) under these conditions. […] Elevation of the intensity near 200 nm indicated formation of autoxidation products such as nitrite. Deaeration inhibited this peak (data not shown).
(§1) The rate constants of decomposition were measured spectrophotometrically by monitoring the decrease in absorbance of peaks at ˜240-250 nm characteristic of the diazeniumdiolate functionality. The hydrolysis medium consisted of the metal chelator diethylenetriaminepentaacetic acid (DTPA, 50 μM) in calcium- and magnesium-free Dulbecco's phosphate-buffered saline (PBS, pH 7.4). UV-visible spectroscopy was performed with a Hewlett-Packard 8453 diode-array spectrophotometer equipped with Agilent 89090A thermostat set to 37° C. The spectrophotometer was blanked after warming the cuvette containing buffer at the appropriate pH in the instrument heat block for 5 min. For esterase-containing reactions, porcine liver esterase (20 μL; Sigma; suspension in 3.2 M (NH4)2SO4, pH 8) was added to the reaction buffer before blanking. Upon addition of IPA/NO (1) or AcOM-IPA/NO (2) (≦10 μL of stock), the cuvette was capped and inverted to mix. Spectra were collected at 0.5- to 60-s intervals for time periods of 2-120 min or until A∞<0.05. Kinetic analysis was performed by fitting the data to an exponential decay (A=ΔAe^−kt+A∞) using KaleidaGraph v.3.1.

Data set [1] in a line: Spontaneous decomposition kinetics by UV spectrophotometry in PBS. It is filed as physicochemical. Here is the method:
as §1
To gain insight into the mechanistic origins of this unexpected finding, the pH/rate profiles of the diazeniumdiolates 1 and 2 were explored. As previously established and shown in FIG. 3A, hydrolysis of 1 slowed as the pH was increased from 3 to 10, with a small increase in rate thereafter. This was the opposite of the results with 2, whose hydrolysis rate was essentially first order in hydroxide ion concentration between pH 5 and 11 (FIG. 3B).

Data set [2] can be described thus: Hydrolysis at pH 11 followed by NMR. The data set is classed as physicochemical. Here is the method: Organic products of the hydrolysis of 1 and 2 were quantified by integrating their NMR spectra. For pH 7.4, 3.9 mM solutions in 0.1 M phosphate buffer were employed. For pH 11, 4.9 mM solutions of 1 and 2 in 50 mM sodium carbonate were studied. Samples were run on a Varian Inova 400 MHz NMR with a Dell Precision 390 workstation. The samples were run at 37° C. and water suppression was achieved by using the preset pulse sequence. Peaks were identified by comparison with authentic standards.

Data set [3] in a line: NO quantified by chemiluminescence during hydrolysis. It is filed as physicochemical. Particulars: neutral pH. Here is the method: In addition to HNO measurements as described above by reductive nitrosylation of metmyoglobin, NO was quantified by chemiluminescence assay, N2O by gas chromatography, and nitrite ion by the Griess assay.
Detection of HNO was also carried out using the chemiluminescence method in, 1 mM ferricyanide solution.

In another data set the test system is ventricular myocytes. Kind of data set: Sarcomere shortening in isolated ventricular myocytes. Particulars: 3 μM. It is filed as cell-based, C57BL/6 male mice. Here is the method: A stock solution of 2 in DMSO was freshly prepared prior to each experiment and stored on ice protected from the light. Liberase blendzyme 3 was purchased from Roche Diagnostics (Mannheim) while CaCl2, DMSO, and glucose were purchased from Merck (Darmstadt). Calcium-free perfusion buffer contained 113 mM NaCl, 4.7 mM KCl, 0.6 mM KH2PO4, 0.6 mM Na2HPO4, 1.2 mM MgSO4, 12 mM NaHCO3, 10 mM KHCO3, 30 mM taurine, 5.5 mM glucose, 10 mM 2,3-butanedione monoxime, and 10 mM 4-(2-hydroxyethyl)-1-piperazineethanesulfonic acid (HEPES) at pH 7.4. Digestion buffer contained an additional 0.1 mg/mL of recombinant collagenases/proteases (Liberase blendzyme 3) and 12.5 μM CaCl2. IonOptix solution for the sarcomere shortening measurements contained 135 mM NaCl, 4.7 mM KCl, 0.6 mM KH2PO4, 0.6 mM Na2HPO4, 1.2 mM MgSO4, 1.25 mM CaCl2, 20 mM glucose, and 10 mM HEPES at pH 7.46.
C57BL/6 male mice (13-15 weeks) were used in the present study. Ventricular myocytes were isolated from wild type hearts using a modified protocol of O'Connell et al., (AfCS Research Reports, 1(5): 1-9 (2003)). […] After further centrifugation, ionOptix buffer was added on the pellet and sarcomere shortening was assessed on field stimulation (1 Hz with 4-ms duration, 10 V) using a video-based sarcomere length detection system (IonOptix Corporation) at room temperature.

Data set [4] has as its system MB-231 breast cancer cell lines.
Protocol: (§2) Intracellular NO/HNO release from the derivatized NSAIDs was determined using 4-amino-5-methylamino-2′,7′-difluorofluoroescein diacetate (DAF-FM diacetate) as in Example 9.
The test system is the same in data set [5]. The data set can be described thus: DAF assay of cell membrane penetration, MB-231. Particulars: MB-231 cell line.
Protocol: as §2
The mark [6] stands for this setting: porcine liver esterase 20 μL in 3 mL.

Where two headings read alike, the source gives them in different places. Bounds are passed on as bounds.

This is an account of results in patent publication US8633177B2, “Nitroxyl (HNO) releasing compounds and uses thereof in treating diseases” (The United States of America, as represented by the …, priority 2010, dated 2014).

On to `CC(C)N[N+]([O-])=N[O-].[Na+]` [Compound 1, sodium 1-(N-isopropylamino)diazen-1-ium-1,2-diolate, reference compound], for which the “COX-2 mRNA level relative to control” value in the data set on COX-2 mRNA is recorded as 1.2. The “rate of decay of 1” value was 0.0033 s⁻¹ with porcine liver esterase (FIG. 4C, esterase present) and 0.0012 s⁻¹ in data set [1] (FIG. 3A, PBS with 50 μM DTPA, 37° C.). For the same molecule, in data set [1] (pH 11, more slowly than 2), the “hydrolysis rate relative to 2” value is recorded as 100 fold. Moreover, the “hydrolysis at pH 11” value in data set [2] (pH 11) is “hydrolyzed slowly”. Moreover, the “species produced on spontaneous hydrolysis” value in data set [3] is “produced both NO and HNO”.

On to `CC(=O)OCO/N=[N+](\[O-])NC(C)C` [Compound 2, O^2-(acetoxymethyl)1-(isopropylamino)diazen-1-ium-1,2-diolate], for which, in the data set with porcine liver esterase (setting [6]), the “rate of hydrolysis of 2 to 1” value came out at 0.067 s⁻¹ and the “time to complete hydrolysis of 2 to 1” value is at most 40 s. The “change in sarcomere shortening relative to baseline, versus 1” value in the data set with ventricular myocytes is listed as “approximately 4 fold”. Besides, in data set [1] (physiological pH), the “hydrolysis rate relative to 1” value is given as “an order of magnitude slower”. Further, the “time to complete dissociation” value in data set [2] (37° C., pH 11 carbonate buffer) is reported as at most 5 min. The “total amount of NO detected on hydrolysis” value in data set [3] (NO-specific chemiluminescence detector) is recorded as “less than 1 % of theoretical yield”.

For `CCN(CC)[N+]([O-])=N[O-].[Na+]` [DEA/NO, O^2-Sodium 1-(N,N-Diethylamino)diazen-1-ium-1,2-diolate, reference compound], the “COX-2 mRNA level relative to control” value in the data set on COX-2 mRNA is given as 6.0.

Regarding `CCN(CC)[N+]([O-])=NOCOC(=O)Cc1c(C)n(C(=O)c2ccc(Cl)cc2)c2ccc(OC)cc12` [DEA/NO-indomethacin, O^2-(methyl2-(1-(4-chlorobenzoyl)-5-methoxy-2-methyl-1H-indol-3-yl)acetate)-1-(N,N-Diethylamino)-diazen-1-ium-1,2-diolate], the cell membrane penetration entry in data set [4] was “penetrated cell membranes”.

As to `COc1ccc2c(c1)c(CC(=O)OCON=[N+]([O-])NC(C)C)c(C)n2C(=O)c1ccc(Cl)cc1` [IPA/NO-indomethacin, O^2-(methyl2-(1-(4-chlorobenzoyl)-5-methoxy-2-methyl-1H-indol-3-yl)acetate)-1-(N-isopropylamino)-diazen-1-ium-1,2-diolate], the cell membrane penetration result in data set [4] was “penetrated cell membranes”.

Turning to `CC(C)N[N+]([O-])=NOC(=O)c1cccnc1Nc1cccc(C(F)(F)F)c1` [IPA/NO-niflumic acid, O^2-(2-(3-(trifluoromethyl)phenylamino)nicotinate)-1-(N-isopropylamino)-diazen-1-ium-1,2-diolate], in data set [5], the cell membrane penetration result is listed as “penetrated cell membranes”.
